Results taken from PubChem BioAssay (NCI).
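Compound exposure: 48 hours, 5 concentrations, 96-well plates. Abbreviation: GI50, concentration required for 50% inhibition of growth. TGI marks complete inhibition of growth.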

Columns and labels:
Assay in all cases: inhibition of tumour cell growth, NCI panel, 48 h
K-562 leukemia = test system: K-562 leukemia
HCT-116 colon = test system: HCT-116 colon
NCI-H23 lung = test system: NCI-H23 lung
HOP-62 NSCLC = test system: HOP-62 NSCLC
UACC-62 melanoma = test system: UACC-62 melanoma
OVCAR-4 ovarian = test system: OVCAR-4 ovarian
HCC-2998 colon = test system: HCC-2998 colon
RPMI-8226 leukemia = test system: RPMI-8226 leukemia
ACHN renal = test system: ACHN renal
NCI-H522 lung = test system: NCI-H522 lung
SK-MEL-28 melanoma = test system: SK-MEL-28 melanoma
MDA-MB-435 = test system: MDA-MB-435
SNB-19 CNS = test system: SNB-19 CNS
NCI/ADR-RES ovarian = test system: NCI/ADR-RES ovarian
LOX IMVI melanoma = test system: LOX IMVI melanoma
SW-620 colon = test system: SW-620 colon
SR leukemia = test system: SR leukemia
EKVX NSCLC = test system: EKVX NSCLC
HS 578T breast = test system: HS 578T breast
CCRF-CEM leukemia = test system: CCRF-CEM leukemia
U251 CNS = test system: U251 CNS
HCT-15 colon = test system: HCT-15 colon
M14 melanoma = test system: M14 melanoma
HOP-92 NSCLC = test system: HOP-92 NSCLC
UO-31 renal = test system: UO-31 renal
SF-268 CNS = test system: SF-268 CNS
SNB-75 CNS = test system: SNB-75 CNS
SF-539 CNS = test system: SF-539 CNS
SK-MEL-5 melanoma = test system: SK-MEL-5 melanoma
OVCAR-3 ovarian = test system: OVCAR-3 ovarian
COLO 205 colon = test system: COLO 205 colon
DU-145 prostate = test system: DU-145 prostate
KM12 colon = test system: KM12 colon
RXF 393 renal = test system: RXF 393 renal
A498 renal = test system: A498 renal
MALME-3M melanoma = test system: MALME-3M melanoma
UACC-257 melanoma = test system: UACC-257 melanoma
SF-295 CNS = test system: SF-295 CNS
PC-3 prostate = test system: PC-3 prostate
786-0 renal = test system: 786-0 renal
A549 NSCLC = test system: A549 NSCLC
MOLT-4 leukemia = test system: MOLT-4 leukemia
MDA-MB-231 breast = test system: MDA-MB-231 breast
CAKI-1 renal = test system: CAKI-1 renal
SK-OV-3 ovarian = test system: SK-OV-3 ovarian
OVCAR-5 ovarian = test system: OVCAR-5 ovarian
BT-549 breast = test system: BT-549 breast
TK-10 renal = test system: TK-10 renal
SK-MEL-2 melanoma = test system: SK-MEL-2 melanoma

In the case of `Cc1ccc2ccc3ccc(C)nc3c2n1.Cc1ccc2ccc3ccc(C)nc3c2n1.Oc1c(Cl)cc(Cl)c2ccc(CN3CCCCC3)nc12.[Ru]`, the GI50 (K-562 leukemia) was 0.253 µM, the TGI (K-562 leukemia) was 1.89 µM and the GI50 (HCT-116 colon) was 0.247 µM. The TGI (HCT-116 colon) was 1.23 µM, the GI50 (NCI-H23 lung) was 0.3 µM and the TGI (NCI-H23 lung) was 1.13 µM. The GI50 (HOP-62 NSCLC) was 0.409 µM, the TGI (HOP-62 NSCLC) was 1.41 µM and the GI50 (UACC-62 melanoma) was 0.445 µM. The TGI (UACC-62 melanoma) was 1.67 µM, the GI50 (OVCAR-4 ovarian) was 0.362 µM and the TGI (OVCAR-4 ovarian) was 1.84 µM. For the same compound, the GI50 (HCC-2998 colon) was 0.414 µM, the TGI (HCC-2998 colon) was 1.58 µM and the GI50 (RPMI-8226 leukemia) was 0.223 µM. The TGI (RPMI-8226 leukemia) was 0.876 µM, the GI50 (ACHN renal) was 1.65 µM and the TGI (ACHN renal) was 3.23 µM. The GI50 (NCI-H522 lung) was 0.363 µM, the TGI (NCI-H522 lung) was 2.13 µM and the GI50 (SK-MEL-28 melanoma) was 0.513 µM. For the same compound, the TGI (SK-MEL-28 melanoma) was 1.78 µM, the GI50 (MDA-MB-435) was 0.333 µM and the TGI (MDA-MB-435) was 1.23 µM. It also gave a GI50 (SNB-19 CNS) of 0.331 µM, a TGI (SNB-19 CNS) of 1.28 µM and a GI50 (NCI/ADR-RES ovarian) of 2.7 µM. For the same compound, the TGI (NCI/ADR-RES ovarian) was 7.99 µM, the GI50 (LOX IMVI melanoma) was 0.341 µM and the TGI (LOX IMVI melanoma) was 1.23 µM. For the same compound, the GI50 (SW-620 colon) was 0.381 µM, the TGI (SW-620 colon) was 1.61 µM and the GI50 (SR leukemia) was 0.345 µM. For the same compound, the TGI (SR leukemia) was 1.75 µM, the GI50 (EKVX NSCLC) was 0.363 µM and the TGI (EKVX NSCLC) was 2.21 µM. The GI50 (HS 578T breast) was 0.354 µM, the TGI (HS 578T breast) was 2.32 µM and the GI50 (CCRF-CEM leukemia) was 0.423 µM. It also gave a TGI (CCRF-CEM leukemia) of 2.2 µM, a GI50 (U251 CNS) of 0.218 µM and a TGI (U251 CNS) of 1.16 µM. The GI50 (HCT-15 colon) was 1.28 µM, the TGI (HCT-15 colon) was 2.77 µM and the GI50 (M14 melanoma) was 0.383 µM. The TGI (M14 melanoma) was 1.44 µM, the GI50 (HOP-92 NSCLC) was 0.109 µM and the TGI (HOP-92 NSCLC) was 0.835 µM. The GI50 (UO-31 renal) was 1.72 µM, the TGI (UO-31 renal) was 3.88 µM and the GI50 (SF-268 CNS) was 0.447 µM. For the same compound, the TGI (SF-268 CNS) was 2.21 µM, the GI50 (SNB-75 CNS) was 0.243 µM and the TGI (SNB-75 CNS) was 1.12 µM. The GI50 (SF-539 CNS) was 0.366 µM, the TGI (SF-539 CNS) was 1.29 µM and the GI50 (SK-MEL-5 melanoma) was 0.675 µM. The TGI (SK-MEL-5 melanoma) was 1.86 µM, the GI50 (OVCAR-3 ovarian) was 0.387 µM and the TGI (OVCAR-3 ovarian) was 1.38 µM. The GI50 (COLO 205 colon) was 0.195 µM, the TGI (COLO 205 colon) was 0.429 µM and the GI50 (DU-145 prostate) was 0.494 µM. The TGI (DU-145 prostate) was 4.91 µM, the GI50 (KM12 colon) was 0.411 µM and the TGI (KM12 colon) was 1.52 µM. It also gave a GI50 (RXF 393 renal) of 0.714 µM, a TGI (RXF 393 renal) of 1.99 µM and a GI50 (A498 renal) of 1.76 µM. For the same compound, the TGI (A498 renal) was 4.02 µM, the GI50 (MALME-3M melanoma) was 0.248 µM and the TGI (MALME-3M melanoma) was 0.666 µM. For the same compound, the GI50 (UACC-257 melanoma) was 0.35 µM, the TGI (UACC-257 melanoma) was 1.23 µM and the GI50 (SF-295 CNS) was 0.286 µM. It also gave a TGI (SF-295 CNS) of 1.16 µM, a GI50 (PC-3 prostate) of 0.303 µM and a TGI (PC-3 prostate) of 1.5 µM. The GI50 (786-0 renal) was 0.542 µM, the TGI (786-0 renal) was 1.78 µM and the GI50 (A549 NSCLC) was 0.326 µM. The TGI (A549 NSCLC) was 1.28 µM, the GI50 (MOLT-4 leukemia) was 0.461 µM and the TGI (MOLT-4 leukemia) was 2.22 µM. It also gave a GI50 (MDA-MB-231 breast) of 0.295 µM, a TGI (MDA-MB-231 breast) of 0.909 µM and a GI50 (CAKI-1 renal) of 1.43 µM. It also gave a TGI (CAKI-1 renal) of 2.83 µM, a GI50 (SK-OV-3 ovarian) of 0.293 µM and a TGI (SK-OV-3 ovarian) of 1.07 µM. For the same compound, the GI50 (OVCAR-5 ovarian) was 0.599 µM, the TGI (OVCAR-5 ovarian) was 3.01 µM and the GI50 (BT-549 breast) was 0.337 µM. The TGI (BT-549 breast) was 0.931 µM, the GI50 (TK-10 renal) was 0.734 µM and the TGI (TK-10 renal) was 2.07 µM. For the same compound, the GI50 (SK-MEL-2 melanoma) was 0.613 µM and the TGI (SK-MEL-2 melanoma) was 1.84 µM.
